From US20080275018A1, “ANTIBACTERIAL AMIDE-MACROCYCLES V” (AiCuris GmbH & Co. KG, priority 2005, published 2008)
pIC50: −log10 of the molar value. In brackets after ≈: the same amount, converted by molar mass. Structures can show the parent of a compound that is named as a salt. Where two headings read alike, the source gives them in different places.

Key:
[1] = tested on: S. aureus 133; experiment: Minimum inhibitory concentration (MIC), S. aureus 133; assay type: cell-based, Staphylococcus aureus
Experimental: (§1) The minimum inhibitory concentration (MIC) is the minimum concentration of an antibiotic with which the growth of a test microbe is inhibited over 18-24 h. The inhibitor concentration can in these cases be determined by standard microbiological methods (see, for example, The National Committee for Clinical Laboratory Standards. Methods for dilution antimicrobial susceptibility tests for bacteria that grow aerobically; approved standard-fifth edition. NCCLS document M7-A5 [ISBN 1-56238-394-9]. NCCLS, 940 West Valley Road, Suite 1400, Wayne, Pa. 19087-1898 USA, 2000). The test substances are thereby initially provided in 1:2 dilution series into 96-well round-bottom microtiter plates (Greiner) double-concentrated in 50 μl of test medium. The aerobically growing test microbes (e.g. staphylococci and enterococci), which are incubated overnight on Columbia blood agar plates (Becton-Dickinson), are, after resuspension in 0.9% NaCl, adjusted to a microbe count of about 5×10^7 microbes/ml and then diluted 1:150 in cation-adjusted MH medium (test medium). 50 μL of this suspension are pipetted onto the test preparations provided in the microtiter plates. The cultures are incubated at 37° C. for 18-24 hours. For microaerophilically growing microbes (e.g. streptococci), 2% lysed horse blood in the final concentration is added to the medium and the cultures are incubated in the presence of 5% CO2. The lowest substance concentration in each case at which no visible bacterial growth occurs any longer is defined as the MIC and is reported in μg/ml.
(§2) The minimum inhibitory concentration (MIC) is the minimum concentration of an antibiotic with which the growth of a test microbe is inhibited over 18-24 h. The inhibitor concentration can in these cases be determined by standard microbiological methods (see, for example, The National Committee for Clinical Laboratory Standards. Methods for dilution antimicrobial susceptibility tests for bacteria that grow aerobically; approved standard-fifth edition. NCCLS document M7-A5 [ISBN 1-56238-394-9]. NCCLS, 940 West Valley Road, Suite 1400, Wayne, Pa. 19087-1898 USA, 2000). The MIC of the compounds of the invention is determined in the liquid dilution test on the 96-well microtiter plate scale. The bacterial microbes are cultivated in a minimal medium (18.5 mM Na2HPO4, 5.7 mM KH2PO4, 9.3 mM NH4Cl, 2.8 mM MgSO4, 17.1 mM NaCl, 0.033 μg/ml thiamine hydrochloride, 1.2 μg/ml nicotinic acid, 0.003 μg/ml biotin, 1% glucose, 25 μg/ml of each proteinogenic amino acid with the exception of phenylalanine; [H.-P. Kroll; unpublished]) with the addition of 0.4% BH broth (test medium). In the case of Enterococcus faecium L4001, heat-inactivated fetal calf serum (FCS; GibcoBRL, Germany) is added to the test medium in a final concentration of 10%. Overnight cultures of the test microbes are diluted to an OD578 of 0.001 (to 0.01 in the case of enterococci) in fresh test medium, and incubated 1:1 with dilutions of the test substances (1:2 dilution steps) in test medium ([…]). The cultures are incubated at 37° C. for 18-24 hours; enterococci in the presence of 5% CO2.
(§3) The lowest substance concentration in each case at which no visible bacterial growth occurs any longer is defined as the MIC.
(§4) The minimum inhibitory concentration (MIC) is the minimum concentration of an antibiotic with which the growth of a test microbe is inhibited over 18-24 h. The inhibitor concentration can in these cases be determined by standard microbiological methods with modified medium in an agar dilution test (see, for example, The National Committee for Clinical Laboratory Standards. Methods for dilution antimicrobial susceptibility tests for bacteria that grow aerobically; approved standard-fifth edition. NCCLS document M7-A5 [ISBN 1-56238-394-9]. NCCLS, 940 West Valley Road, Suite 1400, Wayne, Pa. 19087-1898 USA, 2000). The bacterial microbes are cultivated on 1.5% agar plates which contain 20% defibrinated horse blood. […]

[2] = tested on: S. aureus T17; experiment: Minimum inhibitory concentration (MIC), biphenomycin-resistant S. aureus T17; assay type: cell-based, Staphylococcus aureus; details: Staphylococcus aureus; biphenomycin-resistant S. aureus T17
Experimental: as §1, §2, §3, §4

[3] = tested on: E. faecium L4001; experiment: Minimum inhibitory concentration (MIC), E. faecium L4001; assay type: cell-based, Enterococcus faecium; details: Enterococcus faecium
Experimental: as §2, §3

[4] = target: S. aureus 133 Translation; experiment: S. aureus in vitro transcription-translation assay (firefly luciferase, S30 extract); assay type: biochemical; details: 50% inhibition of the translation of firefly luciferase
Text: For the construction of a reporter plasmid which can be used in an in vitro transcription-translation assay from S. aureus the plasmid pBESTluc (Promega Corporation, USA) is used. The E. coli tac promoter present in this plasmid in front of the firefly luciferase is replaced by the capA1 promoter with corresponding Shine-Dalgarno sequence from S. aureus. The primers CAPFor 5′-[…]-[…] GCCA-3′ and CAPRev 5′-[…]-3′ are used for this. The primer CAPFor contains the capA1 promoter, the ribosome binding site and the 5′ region of the luciferase gene. After PCR using pBESTluc as template it is possible to isolate a PCR product which contains the firefly luciferase gene with the fused capA1 promoter. This is, after restriction with ClaI and HindIII, ligated into the vector pBESTluc which has likewise been digested with ClaI and HindIII. The resulting plasmid pla can be replicated in E. coli and be used as template in the S. aureus in vitro transcription-translation test.
Six litres of BHI medium are inoculated with a 250 ml overnight culture of an S. aureus Strain and allowed to grow at 37° C. until the OD600 nm is 2-4. The cells are harvested by centrifugation and washed in 500 ml of cold buffer A (10 mM Tris acetate, pH 8.0, 14 mM magnesium acetate, 1 mM DTT, 1 M KCl). After renewed centrifugation, the cells are washed in 250 ml of cold buffer A with 50 mM KCl, and the resulting pellets are frozen at −20° C. for 60 min. The pellets are thawed on ice in 30 to 60 min and taken up to a total volume of 99 ml in buffer B (10 mM Tris acetate, pH 8.0, 20 mM magnesium acetate, 1 mM DTT, 50 mM KCl). 1.5 ml portions of lysostaphin (0.8 mg/ml) in buffer B are provided in 3 precooled centrifuge cups and each mixed with 33 ml of the cell suspension. The samples are incubated at 37° C., shaking occasionally, for 45 to 60 min, before 150 μl of a 0.5 M DTT solution are added. The lysed cells are centrifuged at 30 000×g and 4° C. for 30 min. The cell pellet is taken up in buffer B and then centrifuged again under the same conditions, and the collected supernatants are combined. The supernatants are centrifuged again under the same conditions, and 0.25 volumes of buffer C (670 mM Tris acetate, pH 8.0, 20 mM magnesium acetate, 7 mM Na3 phosphoenolpyruvate, 7 mM DTT, 5.5 mM ATP, 70 μM amino acids (complete from Promega), 75 μg of pyruvate kinase (Sigma, Germany)/ml are added to the upper ⅔ of the supernatant. The samples are incubated at 37° C. for 30 min. The supernatants are dialysed against 2 l of dialysis buffer (10 mM Tris acetate, pH 8.0, 14 mM magnesium acetate, 1 mM DTT, 60 mM potassium acetate) in a dialysis tube with a 3500 Da cut-off with one buffer change at 4° C. overnight. The dialysate is concentrated to a protein concentration of about 10 mg/ml by
covering the dialysis tube with cold PEG 8000 powder (Sigma, Germany) at 4° C. The S30 extracts can be stored in aliquots at −70° C.
The inhibition of protein biosynthesis of the compounds can be shown in an in vitro transcription-translation assay. The assay is based on the cell-free transcription and translation of firefly luciferase using the reporter plasmid pla as template and cell-free S30 extracts obtained from S. aureus. The activity of the resulting luciferase can be detected by luminescence measurement.
The amount of S30 extract or plasmid pla to be employed must be tested anew for each preparation in order to ensure an optimal concentration in the test. […] of the substance to be tested, dissolved in 5% DMSO, are introduced into an MTP. Then […] of a suitably concentrated plasmid solution pla are added. […]

[5] = Staphylococcus aureus, 133; read-out: MIC S. aureus 133
[6] = E. faecium L4001, 10% FCS in test medium, read-out: MIC E. faecium L4001
[7] = Staphylococcus aureus, 133, read-out: MIC S. aureus 133
[8] = L4001, read-out: MIC E. faecium L4001

SMILES | MIC [1, 5] | MIC [2] | MIC [3, 6] | pIC50 [4] | MIC [1, 7] | MIC [3, 8]
NCCC[C@H](NC(=O)[C@@H]1Cc2cccc(c2)-c2ccc(O)c(c2)C[C@H](N)C(=O)N[C@@H](C[C@@H](O)CN)C(=O)N1)C(=O)NCCN [Example 1, (8S,11S,14S)-14-Amino-N-((1S)-4-amino-1-{[(2-aminoethyl)amino]carbonyl)}butyl)-11-[(2R)-3-amino-2-hydroxypropyl]-17-hydroxy-10,13-dioxo-9,12-diazatricyclo[14.3.1.1^2,6]-henicosa-1 (20),2(21),3,5,16,18-hexaene-8-carboxamide tetrahydrochloride] | 0.5 µg/mL | 1 µg/mL | 4 µg/mL | 7.15 |  | 
NCCC[C@H](N)CNC(=O)[C@H](CCCN)NC(=O)[C@@H]1Cc2cccc(c2)-c2ccc(O)c(c2)C[C@H](N)C(=O)N[C@@H](CCCN)C(=O)N1 [Example 3, (8S,11S,14S)-14-Amino-N-[(s)-4-amino-1-({[(25)-2,5-diaminopentyl]amino}carbonyl)butyl]-11-(3-aminopropyl)-17-hydroxy-10,13-dioxo-9,12-diazatricyclo[14.3.1.1^2,6]henicosa-1(20),2(21),3,5,16,18-hexaene-8-carboxamide pentahydrochloride] | 2 µg/mL | 2 µg/mL | 16 µg/mL | 6.70 |  | 
NCCNC(=O)[C@@H](N)CCCNC(=O)[C@@H]1Cc2cccc(c2)-c2ccc(O)c(c2)C[C@H](N)C(=O)N[C@@H](C[C@@H](O)CN)C(=O)N1 [Example 5, (8S,11S,14S)-14-Amino-N-{(4S)-4-amino-5-[(2-aminoethyl)amino]-5-oxopentyl}-11-[(2R)-3-amino-2-hydroxypropyl]-17-hydroxy-10,13-dioxo-9,12-diazatricyclo[14.3.1.1^2,6]-henicosa-1(20),2(21),3,5,16,18-hexaene-8-carboxamide tetrahydrochloride] |  | 1 µg/mL |  | 6.70 | 1 µg/mL | 2 µg/mL
NCCC[C@H](NC(=O)[C@@H]1Cc2cccc(c2)-c2ccc(O)c(c2)C[C@H](N)C(=O)N[C@@H](CCCN)C(=O)N1)C(=O)NCCC[C@H](N)CC(=O)NCCN [Example 12, (8S,11S,14S)-14-Amino-N-{(1S)-4-amino-1-[({(4S)-4-amino-6-[(2-aminoethyl)amino]-6-oxohexyl}amino)carbonyl]butyl}-11-(3-aminopropyl)-17-hydroxy-10,13-dioxo-9,12-diazatricyclo[14.3.1.1^2,6]henicosa-1(20),2(21),3,5,16,18-hexaene-8-carboxamide pentahydrochloride] |  | 1 µg/mL |  |  | 1 µg/mL | 16 µg/mL
NCCC[C@H](N)CNC(=O)C[C@@H](N)CCCNC(=O)[C@H](CCCN)NC(=O)[C@@H]1Cc2cccc(c2)-c2ccc(O)c(c2)C[C@H](N)C(=O)N[C@@H](CCCN)C(=O)N1 [Example 15, (8S,11S,14S)-14-Amino-N-((1S)-4-amino-1-{[((4S)-4-amino-6-{[(2S)-2,5-diaminopentyl]-amino}-6-oxohexyl)amino]carbonyl}butyl)-11-(3-aminopropyl)-17-hydroxy-10,13-dioxo-9,12-diazatricyclo[14.3.1.1^2,6]henicosa-1 (20),2(21),3,5,16,18-hexaene-8-carboxamide hexahydrochloride] |  | 2 µg/mL |  | 7.00 | 1 µg/mL | > 32 µg/mL
NCCC[C@H](N)CNC(=O)C[C@H](CCCN)NC(=O)[C@@H]1Cc2cccc(c2)-c2ccc(O)c(c2)C[C@H](N)C(=O)N[C@@H](CCCN)C(=O)N1 [Example 19, (8S,11S,14S)-14-Amino-N-[(1S)-4-amino-1-(2-{[(2S)-2,5-diaminopentyl]amino}-2-oxoethyl)butyl]-11-(3-aminopropyl)-17-hydroxy-10,13-dioxo-9,12-diazatricyclo[14.3.1.1^2,6]henicosa-1 (20),2(21),3,5,16,18-hexaene-8-carboxamide penta(hydrotrifluoroacetate)] | 1 µg/mL (≈ 1.5 µM) | 1 µg/mL (≈ 1.5 µM) | 16 µg/mL (≈ 24 µM) | 7.00 |  | 
CN1C(=O)[C@H](C[C@@H](O)CN)NC(=O)[C@@H](N)Cc2cc(ccc2O)-c2cccc(c2)C[C@H]1C(=O)NCCC(=O)NC[C@@H](N)CCCN [Example 68] | 1 µg/mL (≈ 1.56 µM) | 1 µg/mL (≈ 1.56 µM) | 8 µg/mL (≈ 12.5 µM) | 6.70 |  | 
